Results as given in ChEMBL document CHEMBL5137017, “Identification of NVP-CLR457 as an Orally Bioavailable Non-CNS-Penetrant pan-Class IA Phosphoinositol-3-Kinase Inhibitor” (J Med Chem, 2022).
≈ marks a conversion by molar mass, not a printed value. Calls of active or inactive are those of the source. No cut-off for these calls is given here.

Key:
[1] = AUCinfinity in Beagle dog at 5.4 mg/kg, po measured upto 24 hrs using PVP-ASD form of sample by LC-MS/MS analysis; type: ADME, organism-based, Canis lupus familiaris; parameters: time < 24 hrs, dose 5.4 mg/kg, route po; settings: in vivo
[2] = In vivo Inhibition of AKT phosphorylation at Ser473 residue in athymic nude mouse xenografted with rat Rat1-myr-p110alpha cells at 3 mg/kg, po qd measured after 1 hr; type: functional
[3] = Inhibition of PI3K PTEN mutant in human BT-549 cells assessed as reduction in phosphorylation of AKT at Ser473 residue by Western blot analysis; type: cell-based
[4] = tested on: Rat1; experiment: Antitumor activity at rat Rat1 cells expressing myr-p110alpha xenografted in athymic nude mouse assessed as T/C ratio at 3 mg/kg, po qd measured after 14 to 22 days; type: functional; settings: time 14-22 day
[5] = Stability in human liver microsomes assessed as hepatic extraction preincubated for 3 mins followed by NADPH addition and measured after 60 mins; type: ADME, Microsome; settings: read-out: ERH
[6] = target: Serine/threonine-protein kinase mTOR (Homo sapiens, UniProt P42345); experiment: Displacement of Alexa Fluor labelled Tracer-314 from human N-terminal GST-tagged mTOR incubated for 1 hr by TR-FRET assay
[7] = Oral bioavailability in Sprague-Dawley rat at 21.5 mg/kg using hydroxypropyl methylcellulose amorphous solid dispersion form of sample; type: ADME, organism-based; settings: in vivo
[8] = Effect on blood glucose level in athymic nude mouse xenografted with rat Rat1 cells expressing myr-p110alpha at 3 to 20 mg/kg, po qd measured upto 14 hrs by glucometer analysis; type: toxicity, organism-based; settings: in vivo, dose 3-20 mg/kg
[9] = Dose normalized Cmax in Sprague-Dawley rat at 30 mg/kg, po measured upto 24 hrs by LC-MS/MS analysis; type: ADME, organism-based; settings: in vivo
[10] = Tmax in Beagle dog at 5.4 mg/kg, po measured upto 24 hrs using PVP-ASD form of sample by LC-MS/MS analysis; type: ADME, organism-based, Canis lupus familiaris; settings: in vivo
[11] = Cmax in OF1 mouse at 10 mg/kg,po or 3 mg/kg,iv measured upto 24 hrs by LC-MS/MS analysis; type: ADME, organism-based; parameters: time < 24 hrs, dose 10 mg/kg, route po; settings: in vivo
[12] = Half life in Beagle dog at 6 mg/kg, po measured upto 24 hrs using crystalline form of sample by LC-MS/MS analysis; type: ADME, organism-based, Canis lupus familiaris; settings: in vivo
[13] = Dose normalized Cmax in Sprague-Dawley rat at 3 mg/kg, po measured upto 24 hrs by LC-MS/MS analysis; type: ADME, organism-based; settings: in vivo
[14] = Lipophilicity, logD of compound at pH 6.5; type: physicochemical; settings: buffer
[15] = Solubility of compound in FaSSIF at pH 6.5 measured upto 120 mins by HPLC analysis; type: physicochemical
[16] = Inhibition of PI3K PTEN mutant in human HCC38 cells assessed as reduction in phosphorylation of AKT at Ser473 residue by Western blot analysis; type: cell-based
[17] = Effect on plasma insulin level in athymic nude mouse xenografted with rat Rat1 cells expressing myr-p110alpha at 3 mg/kg, po qd measured upto 14 hrs by glucometer analysis; type: toxicity, organism-based; settings: in vivo
[18] = Inhibition of wild type PI3K in human HCC1187 cells assessed as reduction in phosphorylation of AKT at Ser473 residue by Western blot analysis; type: cell-based
[19] = target: Phosphatidylinositol 4,5-bisphosphate 3-kinase catalytic subunit beta isoform (Homo sapiens, UniProt P42338); experiment: Inhibition of PI3Kbeta (unknown origin) using L-alpha-phosphatidylinositol as substrate in presence of ATP by Kinase Glo luminescence assay
Sequence of Phosphatidylinositol 4,5-bisphosphate 3-kinase catalytic subunit beta isoform (P42338 whole entry, canonical isoform): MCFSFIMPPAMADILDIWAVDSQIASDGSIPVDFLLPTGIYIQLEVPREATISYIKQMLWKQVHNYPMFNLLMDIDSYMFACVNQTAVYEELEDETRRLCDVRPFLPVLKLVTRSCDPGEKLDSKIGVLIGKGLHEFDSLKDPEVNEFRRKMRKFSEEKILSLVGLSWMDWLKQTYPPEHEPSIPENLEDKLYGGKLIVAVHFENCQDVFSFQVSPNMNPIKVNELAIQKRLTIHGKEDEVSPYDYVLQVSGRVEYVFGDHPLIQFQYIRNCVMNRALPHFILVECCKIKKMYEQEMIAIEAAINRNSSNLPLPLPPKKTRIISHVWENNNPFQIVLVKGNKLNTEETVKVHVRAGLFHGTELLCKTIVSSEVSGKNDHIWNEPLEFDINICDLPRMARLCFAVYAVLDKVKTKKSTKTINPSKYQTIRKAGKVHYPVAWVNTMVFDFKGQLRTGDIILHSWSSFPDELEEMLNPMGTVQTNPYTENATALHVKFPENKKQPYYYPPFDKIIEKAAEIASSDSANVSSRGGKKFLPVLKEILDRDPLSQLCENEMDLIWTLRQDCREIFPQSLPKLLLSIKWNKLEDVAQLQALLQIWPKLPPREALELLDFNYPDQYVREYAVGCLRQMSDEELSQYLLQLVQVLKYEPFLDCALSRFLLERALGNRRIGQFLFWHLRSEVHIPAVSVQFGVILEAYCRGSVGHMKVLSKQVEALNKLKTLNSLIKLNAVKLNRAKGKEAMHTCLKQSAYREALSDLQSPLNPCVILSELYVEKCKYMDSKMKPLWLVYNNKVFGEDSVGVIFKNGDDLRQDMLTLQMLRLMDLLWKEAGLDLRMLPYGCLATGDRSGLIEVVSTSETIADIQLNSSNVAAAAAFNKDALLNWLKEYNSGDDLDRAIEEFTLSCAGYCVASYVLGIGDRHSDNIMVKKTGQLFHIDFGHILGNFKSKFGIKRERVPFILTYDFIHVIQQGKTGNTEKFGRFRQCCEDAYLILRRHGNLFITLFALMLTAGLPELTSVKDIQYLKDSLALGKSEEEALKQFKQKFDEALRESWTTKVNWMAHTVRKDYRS

[20] = Drug concentration in OF1 mouse blood at 1 mg/kg, iv measured at 1 hr post dose by LC-MS/MS analysis; type: ADME, organism-based; settings: whole blood, read-out: Ct
[21] = Tmax in Sprague-Dawley rat at 100 mg/kg, po measured upto 24 hrs by LC-MS/MS analysis; type: ADME, organism-based; settings: in vivo
[22] = Dose normalized AUC in beagle dog at 0.1 mg/kg, iv measured upto 24 hrs by LC-MS/MS analysis; type: ADME, organism-based, Canis lupus familiaris; settings: in vivo
[23] = Drug concentration in OF1 mouse brain at 1 mg/kg, iv measured at 5 mins post dose by LC-MS/MS analysis; type: ADME, organism-based; settings: in vivo
[24] = Dose normalized Cmax in beagle dog at 3 mg/kg, po measured upto 24 hrs by LC-MS/MS analysis; type: ADME, organism-based, Canis lupus familiaris; settings: in vivo
[25] = target: Tubulin (Sus scrofa) (UniProt P02554+P02550); experiment: Inhibition of porcine tubulin polymerization assessed as inhibition of microtubule polymerization at 15 to 30 uM measured after 1 hr; type: protein assay; settings: dose 15-30 µM
Sequence of Tubulin (Sus scrofa) (P02550 whole entry, looked up): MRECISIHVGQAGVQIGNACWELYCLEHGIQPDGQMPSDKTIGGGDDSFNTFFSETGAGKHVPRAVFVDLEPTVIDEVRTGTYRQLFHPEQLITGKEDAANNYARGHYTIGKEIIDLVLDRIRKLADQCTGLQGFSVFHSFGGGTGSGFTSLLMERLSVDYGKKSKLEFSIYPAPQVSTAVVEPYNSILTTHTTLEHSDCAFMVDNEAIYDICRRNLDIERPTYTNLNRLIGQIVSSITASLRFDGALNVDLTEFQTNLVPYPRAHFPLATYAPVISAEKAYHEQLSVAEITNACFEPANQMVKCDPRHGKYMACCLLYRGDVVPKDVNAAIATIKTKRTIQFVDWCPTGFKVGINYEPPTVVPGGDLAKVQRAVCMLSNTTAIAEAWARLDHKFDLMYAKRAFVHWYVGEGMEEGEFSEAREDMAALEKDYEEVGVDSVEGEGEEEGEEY
Sequence of Tubulin (Sus scrofa) (P02554 whole entry, looked up): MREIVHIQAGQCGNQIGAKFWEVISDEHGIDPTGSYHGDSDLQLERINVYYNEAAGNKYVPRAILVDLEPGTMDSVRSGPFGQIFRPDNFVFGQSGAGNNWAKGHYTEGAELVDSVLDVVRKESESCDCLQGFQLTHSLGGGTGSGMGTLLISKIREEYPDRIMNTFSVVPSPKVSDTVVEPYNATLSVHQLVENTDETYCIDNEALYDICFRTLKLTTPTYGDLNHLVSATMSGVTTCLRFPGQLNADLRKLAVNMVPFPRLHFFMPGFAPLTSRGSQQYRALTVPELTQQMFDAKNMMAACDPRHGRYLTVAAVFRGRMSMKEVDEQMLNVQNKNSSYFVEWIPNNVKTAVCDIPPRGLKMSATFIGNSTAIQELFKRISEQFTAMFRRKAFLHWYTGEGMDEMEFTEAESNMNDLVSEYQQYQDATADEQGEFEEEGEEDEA

[26] = Minimal apparent permeability across apical to basolateral side in human Caco-2 cells at 0.25 to 30 uM measured after 120 mins by LC-MS/MS analysis; type: ADME, cell-based; settings: dose 0.25-30 µM
[27] = Oral bioavailability in beagle dog at 0.3 mg/kg measured upto 24 hrs by LC-MS/MS analysis; type: ADME, organism-based, Canis lupus familiaris; settings: in vivo
[28] = Cmax in Beagle dog at 6 mg/kg, po measured upto 24 hrs using crystalline form of sample by LC-MS/MS analysis; type: ADME, organism-based, Canis lupus familiaris; parameters: dose 6 mg/kg, time < 24 hrs, route po; settings: in vivo
[29] = Cmax in beagle dog at 0.3 mg/kg,po or 0.1 mg/kg,iv measured upto 24 hrs by LC-MS/MS analysis; type: ADME, organism-based, Canis lupus familiaris; parameters: dose 0.3 mg/kg, time < 24 hrs, route po; settings: in vivo
[30] = AUC(0 to Tlast) in athymic nude mouse xenografted with rat Rat1 cells expressing myr-p110alpha at 20 mg/kg, po measured after 8 days by LC-MS/MS analysis; type: ADME, organism-based; parameters: dose 20 mg/kg, time 8 day, route po; settings: in vivo
[31] = target: Phosphatidylinositol 4,5-bisphosphate 3-kinase catalytic subunit gamma isoform (Homo sapiens, UniProt P48736); experiment: Inhibition of PI3Kgamma (unknown origin) using phosphatidylinositol 4,5-bisphosphate as substrate measured for 15 to 60 mins by TR-FRET based Adapta universal kinase assay
Sequence of Phosphatidylinositol 4,5-bisphosphate 3-kinase catalytic subunit gamma isoform (P48736 whole entry, canonical isoform): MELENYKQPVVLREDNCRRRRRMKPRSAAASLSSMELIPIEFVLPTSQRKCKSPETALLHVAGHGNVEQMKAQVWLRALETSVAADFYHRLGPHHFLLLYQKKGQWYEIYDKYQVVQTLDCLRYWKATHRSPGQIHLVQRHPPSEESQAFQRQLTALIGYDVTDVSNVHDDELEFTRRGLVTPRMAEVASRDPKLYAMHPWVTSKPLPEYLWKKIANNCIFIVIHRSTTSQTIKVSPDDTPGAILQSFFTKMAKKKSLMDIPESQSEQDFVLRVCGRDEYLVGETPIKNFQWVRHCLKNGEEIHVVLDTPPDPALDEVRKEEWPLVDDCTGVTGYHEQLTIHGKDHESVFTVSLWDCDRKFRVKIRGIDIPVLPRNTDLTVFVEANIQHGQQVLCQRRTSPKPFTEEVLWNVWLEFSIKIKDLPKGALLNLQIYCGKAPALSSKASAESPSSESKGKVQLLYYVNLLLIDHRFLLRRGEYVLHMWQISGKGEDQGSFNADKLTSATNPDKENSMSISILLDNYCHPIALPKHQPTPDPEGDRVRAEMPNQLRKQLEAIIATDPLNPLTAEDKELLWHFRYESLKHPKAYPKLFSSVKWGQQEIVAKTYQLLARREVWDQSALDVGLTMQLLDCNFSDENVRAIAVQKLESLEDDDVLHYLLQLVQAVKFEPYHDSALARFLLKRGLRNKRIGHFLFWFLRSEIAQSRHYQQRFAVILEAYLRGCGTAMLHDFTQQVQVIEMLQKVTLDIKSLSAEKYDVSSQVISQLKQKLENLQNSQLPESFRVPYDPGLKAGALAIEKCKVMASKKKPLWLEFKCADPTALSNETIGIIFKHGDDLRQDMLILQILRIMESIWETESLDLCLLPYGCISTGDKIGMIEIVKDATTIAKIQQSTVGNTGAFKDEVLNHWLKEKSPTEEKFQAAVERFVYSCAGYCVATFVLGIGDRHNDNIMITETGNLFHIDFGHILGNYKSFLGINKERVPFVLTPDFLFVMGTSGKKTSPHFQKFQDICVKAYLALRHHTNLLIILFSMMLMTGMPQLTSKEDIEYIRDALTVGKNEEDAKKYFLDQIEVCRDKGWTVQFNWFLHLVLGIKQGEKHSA

[32] = Clast in athymic nude mouse xenografted with rat Rat1 cells expressing myr-p110alpha at 3 mg/kg, po measured after 8 days by LC-MS/MS analysis; type: ADME, organism-based; settings: in vivo, time 8 day, read-out: Clast
[33] = tested on: Mus musculus; experiment: In vivo Inhibition of AKT phosphorylation at Ser473 residue in athymic nude mouse xenografted with rat Rat1-myr-p110alpha cells at 20 mg/kg, po qd measured after 1 to 10 hrs; type: functional, organism-based; settings: time 1-10 hrs
[34] = Solubility of compound in FaSSIF at pH 5.8 measured upto 120 mins by HPLC analysis; type: physicochemical

C[C@H]1OC(=O)N(c2nc(-c3cnc(N)nc3C(F)(F)F)cc(N3CCOCC3)n2)[C@H]1CO
AUC(0-inf) [1]: 152 µM·h | inhibition in vivo at 3 mg/kg [2]: 80% | IC50 [3]: 0.099 µM | T/C [4]: 0.43 | hepatic extraction ratio at 1 h [5]: 0.37 | IC50 [6]: 2.47 µM | bioavailability [7]: 100% | Activity [8]: Non-Toxic | Cmax/dose [9]: 0.041 µM | Tmax [10]: 2 h | Cmax [11]: 0.422 µM | half-life [12]: 12.9 h | Cmax/dose [13]: 0.213 µM | logD [14]: 2 | solubility at 2 h [15]: 31 µM (≈ 14.1 µg/mL) | IC50 [16]: 0.088 µM | Activity [17]: Non-Toxic | IC50 [18]: 0.094 µM | IC50 [19]: 0.0083 µM | concentration at 1 h [20]: 0.63 µM | Tmax [21]: 24 h | AUC/dose [22]: 11213 nM·h | Ct [23]: 67 pmol/g | Cmax/dose [24]: 0.309 µM | inhibition [25]: Active | Papp A→B at 2 h, up to 30 µM [26]: 25 nm/s | bioavailability [27]: 98% | Cmax [28]: 1.24 µM | Cmax [29]: 1.12 µM | AUC(0-t) at 192 h [30]: 26 µM·h | IC50 [31]: 0.23 µM | concentration at 192 h [32]: 0.003 µM | inhibition [33]: Active | solubility at 2 h [34]: 51 µM (≈ 23.2 µg/mL)
